Data reported in the NIST ThermoML archive (doi:10.1016/j.fluid.2014.12.033).
Numbers after ± are expanded uncertainties.

Details: Liquid

| SMILES | Normal boiling temperature (Distillation) [°C] | Normal boiling temperature (DSC) [°C] |
| --- | --- | --- |
| ClC(Cl)Cl [trichloromethane] | 62 ± 1 | – |
| CCCCCCCCO [octan-1-ol] | 193 ± 1 | – |
| CCCCC(CC)COP(=O)(O)OCC(CC)CCCC (centres undefined) [bis(2-ethylhexyl) hydrogen phosphate] | – | 260 ± 16 |
| C1CCCCC1 [cyclohexane] | 82 ± 1 | – |
